PubChem BioAssay AID463149 (The Scripps Research Institute Molecular Screening Center, 2010)

Experiments:
Experiment in all cases: PME-1 inhibition and serine hydrolase selectivity by ABPP – cell lysate, gel-based competitive ABPP, fluorescence, powder samples, selectivity assay, late-stage follow-up (AID 463149);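 also: 0% = DMSO-treated band intensity and 100% = blank gel background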
[1] = molecular target: Acylamino-acid-releasing enzyme (Homo sapiens) (UniProt P13798); details: HeLa soluble proteome, FP-Rh fluorescence, measured here: Anti-Target APEH, stronger effect = higher value
Sequence of Acylamino-acid-releasing enzyme (Homo sapiens) (P13798 whole entry, looked up): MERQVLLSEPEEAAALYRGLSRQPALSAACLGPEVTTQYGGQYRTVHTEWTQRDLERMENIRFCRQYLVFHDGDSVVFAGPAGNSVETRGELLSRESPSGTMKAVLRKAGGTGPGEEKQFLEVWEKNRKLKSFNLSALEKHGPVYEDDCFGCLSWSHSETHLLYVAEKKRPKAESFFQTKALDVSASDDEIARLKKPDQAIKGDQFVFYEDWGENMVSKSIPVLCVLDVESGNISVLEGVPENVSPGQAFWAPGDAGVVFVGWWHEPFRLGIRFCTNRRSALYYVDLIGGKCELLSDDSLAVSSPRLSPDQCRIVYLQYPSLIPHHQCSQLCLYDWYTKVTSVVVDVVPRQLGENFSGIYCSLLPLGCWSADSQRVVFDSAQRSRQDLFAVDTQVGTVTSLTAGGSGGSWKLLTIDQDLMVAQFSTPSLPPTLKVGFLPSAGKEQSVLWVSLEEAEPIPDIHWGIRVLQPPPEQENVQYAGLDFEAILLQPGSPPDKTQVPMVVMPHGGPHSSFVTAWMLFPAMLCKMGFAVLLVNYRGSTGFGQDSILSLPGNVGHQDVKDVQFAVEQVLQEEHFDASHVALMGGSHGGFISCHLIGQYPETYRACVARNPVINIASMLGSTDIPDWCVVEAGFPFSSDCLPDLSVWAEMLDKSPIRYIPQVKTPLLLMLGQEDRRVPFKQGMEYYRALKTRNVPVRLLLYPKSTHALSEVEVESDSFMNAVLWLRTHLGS

Anti-Target ABHD10 = details: HeLa soluble proteome, FP-Rh fluorescence, stronger effect = higher value
Anti-Target CES = details: HeLa soluble proteome, FP-Rh fluorescence, measured here: Anti-Target CES, stronger effect = higher value
Anti-Target PREP = details: HeLa soluble proteome, FP-Rh fluorescence, measured here: Anti-Target PREP, stronger effect = higher value
[2] = molecular target: Fatty acid synthase (Homo sapiens) (UniProt P49327); details: HeLa soluble proteome, FP-Rh fluorescence, measured here: Anti-Target FAS, stronger effect = higher value
Sequence of Fatty acid synthase (Homo sapiens) (P49327 whole entry, looked up): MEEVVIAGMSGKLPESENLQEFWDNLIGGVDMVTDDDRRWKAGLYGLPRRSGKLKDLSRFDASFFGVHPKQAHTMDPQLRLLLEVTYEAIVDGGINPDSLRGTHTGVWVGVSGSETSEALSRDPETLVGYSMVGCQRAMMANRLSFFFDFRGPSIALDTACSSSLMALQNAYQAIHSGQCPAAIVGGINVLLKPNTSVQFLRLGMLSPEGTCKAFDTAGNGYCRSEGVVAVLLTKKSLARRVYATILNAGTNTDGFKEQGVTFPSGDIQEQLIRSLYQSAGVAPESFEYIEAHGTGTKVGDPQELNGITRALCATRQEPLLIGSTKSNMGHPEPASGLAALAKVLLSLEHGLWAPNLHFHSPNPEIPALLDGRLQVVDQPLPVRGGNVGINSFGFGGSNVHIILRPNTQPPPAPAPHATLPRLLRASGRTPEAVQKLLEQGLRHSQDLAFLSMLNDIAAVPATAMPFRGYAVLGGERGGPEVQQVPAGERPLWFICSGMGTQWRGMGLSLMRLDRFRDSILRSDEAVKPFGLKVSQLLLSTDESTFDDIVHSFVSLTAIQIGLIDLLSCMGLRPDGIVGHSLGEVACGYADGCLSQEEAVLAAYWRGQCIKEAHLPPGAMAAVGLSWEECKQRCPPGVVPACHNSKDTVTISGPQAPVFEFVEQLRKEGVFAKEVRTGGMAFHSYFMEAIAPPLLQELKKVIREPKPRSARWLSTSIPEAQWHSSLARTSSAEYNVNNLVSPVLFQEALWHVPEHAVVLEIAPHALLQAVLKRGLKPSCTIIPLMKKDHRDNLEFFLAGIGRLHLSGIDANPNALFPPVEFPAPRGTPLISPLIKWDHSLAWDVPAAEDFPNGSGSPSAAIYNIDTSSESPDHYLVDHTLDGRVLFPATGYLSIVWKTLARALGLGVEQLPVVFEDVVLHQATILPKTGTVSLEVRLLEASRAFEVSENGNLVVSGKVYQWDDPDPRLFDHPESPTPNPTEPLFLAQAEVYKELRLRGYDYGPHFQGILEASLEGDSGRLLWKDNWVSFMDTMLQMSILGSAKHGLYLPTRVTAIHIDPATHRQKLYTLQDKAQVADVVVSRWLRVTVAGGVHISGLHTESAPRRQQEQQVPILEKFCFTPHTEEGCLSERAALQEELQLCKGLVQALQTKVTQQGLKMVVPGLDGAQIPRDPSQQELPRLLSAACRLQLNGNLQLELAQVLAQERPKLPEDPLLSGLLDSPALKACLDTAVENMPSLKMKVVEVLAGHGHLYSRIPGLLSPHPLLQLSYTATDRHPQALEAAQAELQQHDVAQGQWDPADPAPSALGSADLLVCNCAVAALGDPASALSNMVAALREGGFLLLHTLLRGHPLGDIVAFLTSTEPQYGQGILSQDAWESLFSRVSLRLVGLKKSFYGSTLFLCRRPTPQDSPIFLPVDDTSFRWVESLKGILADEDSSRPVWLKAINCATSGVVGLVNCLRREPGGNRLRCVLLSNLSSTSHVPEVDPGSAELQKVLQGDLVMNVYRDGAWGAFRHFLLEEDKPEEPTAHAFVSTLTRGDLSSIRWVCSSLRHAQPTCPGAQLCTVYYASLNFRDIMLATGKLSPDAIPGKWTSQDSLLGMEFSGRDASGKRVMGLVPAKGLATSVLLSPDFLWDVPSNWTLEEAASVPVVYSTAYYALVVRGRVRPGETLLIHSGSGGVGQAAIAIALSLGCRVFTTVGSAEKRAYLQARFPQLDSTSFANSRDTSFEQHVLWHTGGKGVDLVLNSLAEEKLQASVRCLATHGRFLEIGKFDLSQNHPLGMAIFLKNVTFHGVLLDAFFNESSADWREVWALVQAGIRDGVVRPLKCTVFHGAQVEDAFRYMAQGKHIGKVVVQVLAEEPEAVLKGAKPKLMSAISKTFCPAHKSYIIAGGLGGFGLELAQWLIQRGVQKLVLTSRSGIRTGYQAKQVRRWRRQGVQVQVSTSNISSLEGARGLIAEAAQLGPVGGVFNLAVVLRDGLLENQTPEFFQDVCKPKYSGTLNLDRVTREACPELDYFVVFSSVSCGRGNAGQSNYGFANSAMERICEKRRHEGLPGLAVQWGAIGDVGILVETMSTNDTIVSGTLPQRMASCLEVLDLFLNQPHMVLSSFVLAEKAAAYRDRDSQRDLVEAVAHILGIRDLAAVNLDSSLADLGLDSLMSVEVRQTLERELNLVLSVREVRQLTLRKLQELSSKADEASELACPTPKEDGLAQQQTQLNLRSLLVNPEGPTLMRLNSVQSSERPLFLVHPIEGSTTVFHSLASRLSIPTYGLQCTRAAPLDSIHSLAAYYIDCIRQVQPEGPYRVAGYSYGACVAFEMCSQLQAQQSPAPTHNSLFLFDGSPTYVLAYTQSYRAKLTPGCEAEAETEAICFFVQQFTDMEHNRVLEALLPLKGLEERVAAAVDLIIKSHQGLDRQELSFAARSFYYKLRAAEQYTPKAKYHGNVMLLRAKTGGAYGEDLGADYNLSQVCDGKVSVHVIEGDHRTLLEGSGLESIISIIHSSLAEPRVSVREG

[3] = molecular target: Protein phosphatase methylesterase 1 (Homo sapiens) (UniProt Q9Y570); details: HeLa soluble proteome, FP-Rh fluorescence, stronger effect = higher value
Sequence of Protein phosphatase methylesterase 1 (Homo sapiens) (Q9Y570 whole entry, looked up): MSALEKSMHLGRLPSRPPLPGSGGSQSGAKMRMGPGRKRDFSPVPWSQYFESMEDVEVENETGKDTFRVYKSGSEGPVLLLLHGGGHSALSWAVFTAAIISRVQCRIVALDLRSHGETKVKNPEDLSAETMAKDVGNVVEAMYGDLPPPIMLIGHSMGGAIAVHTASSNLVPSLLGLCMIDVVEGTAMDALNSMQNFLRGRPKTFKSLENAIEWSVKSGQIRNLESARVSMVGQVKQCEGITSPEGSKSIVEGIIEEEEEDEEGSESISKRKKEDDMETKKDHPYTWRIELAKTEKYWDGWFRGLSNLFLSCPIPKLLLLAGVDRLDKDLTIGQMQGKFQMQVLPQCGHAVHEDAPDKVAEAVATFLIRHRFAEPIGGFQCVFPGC

[4] = measured here: Anti-Target ABHD10, at 1 µM
[5] = measured here: Anti-Target ABHD10, at 20 µM

Row | SMILES | inhibition ([1]; at 1 µM) [%] | inhibition ([1]; at 20 µM) [%] | inhibition (Anti-Target ABHD10; [4]) [%] | inhibition (Anti-Target ABHD10; [5]) [%] | inhibition (Anti-Target CES; at 1 µM) [%] | inhibition (Anti-Target CES; at 20 µM) [%] | inhibition (Anti-Target PREP; at 1 µM) [%] | inhibition (Anti-Target PREP; at 20 µM) [%] | inhibition ([2]; at 1 µM) [%] | inhibition ([2]; at 20 µM) [%] | inhibition ([3]; PME-1, inhibition, at 1 µM) [%] | inhibition ([3]; PME-1, inhibition, at 20 µM) [%] | inhibition ([3]; PME-1, at 0.1 µM) [%]
1 | CC[C@]1(c2ccccc2C)C(=O)N(C(=O)OC)N1C(=O)OC | 0 | 0 | 0 | 0 | 0 | > 50 | 0 | 0 | 0 | 0 | 0 | 100 | –
2 | CCOC(=O)N1C(=O)[C@](c2ccc(Cl)cc2)(C(C)C)N1C(=O)OCC | 0 | 0 | 0 | 0 | 0 | 0 | 0 | 0 | 0 | 0 | 50 | 100 | –
3 | CC[C@]1(c2ccccc2)C(=O)N(C(=O)OC)N1C(=O)OC | 0 | 0 | 0 | 0 | > 50 | > 50 | 0 | 0 | 0 | 0 | 75 | 100 | –
4 | CC[C@@]1(c2ccccc2C)C(=O)N(C(=O)OC)N1C(=O)OC | 0 | 0 | 0 | 0 | > 50 | > 50 | 0 | 0 | 0 | 0 | 50 | 100 | –
5 | CCOC(=O)N1C(=O)[C@@](c2ccc(Cl)cc2)(C(C)C)N1C(=O)OCC | 0 | 0 | 0 | 0 | 0 | 0 | 0 | 0 | 0 | 0 | 0 | 0 | –
6 | COC(=O)N1C(=O)[C@@](CC(C)C)(c2ccccc2)N1C(=O)OC | 0 | > 50 | 0 | 0 | > 50 | > 50 | 0 | 0 | 0 | > 50 | 100 | 100 | –
7 | COC(=O)N1C(=O)[C@](c2ccccc2)(C2CCCC2)N1C(=O)OC | 0 | > 50 | 0 | 0 | 0 | 0 | 0 | 0 | 0 | > 50 | 100 | 100 | 100
8 | COC(=O)N1C(=O)[C@@](c2ccccc2)(C2CCCCC2)N1C(=O)OC | 0 | 0 | 0 | 0 | 0 | 0 | 0 | 0 | 0 | 0 | 100 | 100 | –
9 | COC(=O)N1C(=O)[C@@](c2ccccc2)(C2CCCC2)N1C(=O)OC | 0 | 0 | 0 | 0 | 0 | 0 | 0 | 0 | 0 | 0 | 100 | 100 | 50
10 | COC(=O)N1C(=O)[C@@](c2ccc(OC)cc2)(C(C)C)N1C(=O)OC | 0 | 0 | 0 | 0 | 0 | > 50 | 0 | 0 | 0 | 0 | 0 | 50 | –
11 | COC(=O)N1C(=O)[C@](c2ccc(OC)cc2)(C(C)C)N1C(=O)OC | 0 | 0 | 0 | 0 | 0 | 0 | 0 | 0 | 0 | > 50 | 100 | 100 | –
